Consider 1 compound from patent US9408853B2, “Iridium/rhodium anti-cancer compounds” (University of Warwick, priority 2010, dated 2016).

One data set concerns 9-ethyladenine (9-EtA). The data set can be described thus: Interactions with nucleobases: 9-EtA adduct formation (1H NMR). The settings on record: 10 min; 1 mM, 1 mol equiv 9-EtA, D2O, 310 K. It is filed as binding. The protocol: Interactions with Nucleobases. The reaction of ZL01, ZL03, ZL04, ZL07, ZL25, ZL33, ZL37, ZL38, ZL43 and ZL54 and ZL33A with nucleobases typically involved addition of a solution containing 1-2 mol equiv of nucleobase in D2O, to an equilibrium solution of ZL01, ZL03, ZL04, ZL07, ZL25, ZL33, ZL37, ZL38, ZL43, ZL54 and ZL33A in a solution of 5% MeOD-d4/95% D2O (v/v). ^1H NMR spectra of these solutions were recorded at 310 K after various time intervals.
Since DNA is a potential target site for transition metal anticancer complexes,^18 nucleobase binding reactions of compounds ZL01, ZL03, ZL04, ZL07, ZL25, ZL33, ZL33A, ZL37, ZL38, ZL43 and ZL54 with nucleobase models 9-ethylguanine (9-EtG) and 9-ethyladenine (9-EtA), were investigated. Solutions of ZL01, ZL03, ZL04, ZL07, ZL25, ZL33, ZL37, ZL38, ZL43 and ZL54 (1 mM) (containing an equilibrium mixture of these complexes and their respective aqua adducts) with 1 mol equivalent of 9-EtG or 9-EtA in D2O were prepared, and ^1H NMR spectra were recorded at different time intervals.

Data set [1] concerns human ovarian A2780 cancer cells. The data set can be described thus: Cancer cell cytotoxicity, SRB assay. The note with it: 24 h exposure, 72 h recovery, SRB; read-out: A2780 IC50. The class given is cell-based. The method, boiled down:
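Cells plated at 5000/well were dosed on day 3 with Ir^III complexes (0.05–100 μM, from DMSO stocks diluted into saline and medium) for 24 h. After washout they grew for 72 h in fresh medium before SRB protein staining as a survival read-out. Two independent experiments of three replicates each.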
For orientation: The SRB assay estimates cell density from bound dye.

The subject of data set [2] is ca. 60 cell lines within nine tumour type subpanels. The class given is cell-based. The source says: Six complexes, [(η^5-C5Me4C6H4C6H5)Ir(bpy)Cl]PF6 (ZL25, bpy=2,2′-bipyridine), [(η^5-C5Me4C6H5)Ir(phen)Cl]PF6 (ZL33, phen=1,10-phenanthroline), [(η^5-C5Me4C6H4C6H5) Ir(pico)Cl] (ZL43, pico=picolinate), [(η^5-C5Me5)Ir(2-phpy)Cl] (ZL47), [(η^5-C5Me4C6H4C6H5)Ir(2-phPY)(D2O)Cl] (ZL49) and [(η^5-C5Me4C6H4C6H5) Ir(phen)Cl]PF6 (ZL54), were selected by Developmental Therapeutics Program of National Cancer Institute (NCI, U.S.A.) for in vitro screening test, in which 5 complexes except ZL43 are selected for further testing. The five complexes were tested on ca. 60 cell lines within nine tumour type subpanels at five concentrations ranging from 0.01 to 100 μM.

Data set [3] is described as follows: Kinetics of hydrolysis followed by 1H NMR. It is filed as physicochemical. The note with it: for k (hydrolysis): 0.2 mM, 5% MeOD-d4/95% D2O, pH* 3. On the procedure: Kinetics for Hydrolysis. Although complexes ZL01-ZL04, ZL07, ZL38 and ZL43 hydrolyzed too rapidly to monitor by ^1H NMR, The kinetics of hydrolysis for complexes ZL25, ZL33, ZL37 and ZL54 were followed by ^1H NMR at different temperatures. For this, solutions of the complexes with a final concentration of 0.2 mM in 5% MeOD-d4/95% D2O (v/v) were prepared by dissolution of the complexes in MeOD-d4 followed by rapid dilution using D2O with a pH* of about 3 (acidified with HClO4), so that the aqua ligand was not deprotonated. ^1H NMR spectra were taken after various time intervals. The rates of hydrolysis were determined by fitting plots of concentrations (determined from ^1H NMR peak integrals) versus time to a pseudo first-order equation using ORIGIN version 7.0. The Arrhenius activation energy (Ea), activation enthalpies (ΔH^¢), and activation entropy (ΔS^‡) for compounds ZL25, ZL33, ZL37 and ZL54 were determined from the slopes of the Arrhenius and intercepts of Eyring plots.
The rates of hydrolysis of compounds ZL01-ZL04, ZL07, ZL25, ZL33, ZL37, ZL38, ZL43 and ZL54 in a 5% MeOD-d4/95% D2O were monitored by ^1H NMR at different temperature from 278 to 298 K by the observation of new peaks over time due to aqua adduct formation. Five percent MeOD was used to improve solubility, and acidic conditions (D2O, pH* 3) were used to prevent the deprotonation of the aqua complex as a secondary reaction. […] The percentage of aqua peak formation for ZL25, ZL33, ZL37 and ZL54 was plotted against time and was fitted to pseudofirst order kinetics (FIG. 3), and their halflife times were calculated (Table 1). The Arrhenius activation energy (Ea), activation enthalpy (ΔH^¢), and activation entropy (ΔS^‡) of compound ZL25, ZL33, ZL37 and ZL54 are listed in Table 4. The large negative ΔS^‡value for compound ZL54 is notable. The extent of hydrolysis at equilibrium is medium for all compounds, ranged from 30% to 60%.

A short description of data set [4]: Aqua adduct formation of ZL33 at chloride levels of nucleus, cytoplasm and plasma (1H NMR). It is filed as physicochemical. The note with it: 1 mM in D2O, 310 K. On the procedure: The effects of chloride concentrations typical of blood plasma (100 mM), cell cytoplasm (22.7 mM), and cell nucleus (4 mM) on the aqueous chemistry of ZL33 was investigated. ^1H NMR spectra of ZL33 (1 mM) were recorded within 10 min of sample preparation and after incubation at 310 K for 24 h (FIG. 4). […] (pH* 6.52) or in 22.7 mM [Cl] (pH* 6.72), and only 5% of ZL33A at 4 mM [Cl] (pH* 6.89) after 10 min. No significant change was observed after 24 h, see Table 2.

As for `Cc1c(C)c(-c2ccccc2)[c-](C)c1C.F[P-](F)(F)(F)(F)F.[Cl-].[Ir+3].c1cnc2c(c1)ccc1cccnc12` (stereo not shown) [ZL33, [(η^5-C5Me4C6H5)Ir(phen)Cl]PF6], the “Reaction with 9-EtA, extent of adduct formation” value in the data set with 9-ethyladenine (9-EtA) came to 0%. Also, the 50% inhibitory concentration (IC50) (usually the concentration at which inhibition is half-maximal) in data set [1] was 6.7 µM. For the same compound, it took 93.3 µM to reach half-maximal cytotoxicity in data set [2] (CC50). In addition, the “Mean graph midpoint (MID) TGI” value in data set [2] (ca. 60 cell lines, 0.01 to 100 μM) came to 51.3 µM. Besides, the GI50 (as a rule, the concentration giving 50% growth inhibition) in data set [2] (ca. 60 cell lines, 0.01 to 100 μM, read-out: Mean graph midpoint (MID) GI50) was 10.7 µM. Also, the “selectivity among tumour type subpanels (in words)” value in data set [2] (mean graphs) was “selective for leukemia, CNS cancer, melanoma, and prostate cancer”. Moreover, the entries for the “k (hydrolysis)” value in data set [3] (278 K), in data set [3] (283 K) and in data set [3] (288 K) were 0.033 min⁻¹, 0.0693 min⁻¹ and 0.1264 min⁻¹, respectively. For the same compound, the “Ea (Arrhenius activation energy of hydrolysis)” value in data set [3] (from Arrhenius plot) came out at 20.5 kcal/mol. Further, in data set [3] (from Eyring plot), the “ΔH^‡ (activation enthalpy of hydrolysis)” value is 20.06 kcal/mol. Further, the “ΔS^‡ (activation entropy of hydrolysis)” value in data set [3] (from Eyring plot) is recorded as 29.3 J K^−1mol^−1. Also, the “% aqua adduct of ZL33 (ZL33A)” value was found to be 5% in data set [4] (4 mM NaCl, t = 10 min); 5% in data set [4] (4 mM NaCl, t = 24 h); 0% in data set [4] (22.7 mM NaCl, t = 24 h); 0% in data set [4] (100 mM NaCl, t = 24 h).
